Values after ≈ are worked out from the molar mass of the structure shown.
How the values were obtained:
[1] = biological target: human Fibroblast activation protein alpha (hFAP) (Homo sapiens (Human), UniProt Q12884); assay: hFAP inhibition assay (tight binders); assay type: biochemical; conditions: tight-binder format, Ala-Pro-AMC 20 μM, 2.5 h incubation; n = 1 or geometric mean (n = 5-10)
Experimental: Data were analyzed in Genedata Screener®.

[2] = biological target: Prolyl Oligopeptidase (hPREP) (Homo sapiens (Human), UniProt P48147); assay: hPREP inhibition assay; assay type: biochemical; conditions: hPREP 0.6 nM, Z-Gly-Pro-amino-methylcoumarin 50 μM; read-out: PREP IC50
Experimental: Compounds were tested in a biochemical inhibition assay using Prolyl endopeptidase, Prolyl Oligopeptidase (hPREP) enzyme at 0.6 nM FAC (R&D Systems, 4308-SE) and the substrate Z-Gly-Pro-amino-methylcoumarin (Bachem, I-1145) at 50 μM FAC. 384 Low volume black plates (Greiner #784076) were used. […] 4 μL, 100 μM substrate solution (25 mM Tris HCl, 250 mM NaCl, 0.01% Triton X-100, 5 mM Glutathione, pH 7.5) was added to each well. Plates were centrifuged at 1000 rpm and incubated for 20 min at rt in dark. […] Data were analyzed in Genedata Screener®.

[3] = Metabolic stability in human liver microsomes (HLM); assay type: in vitro ADME
Experimental: Metabolic stability in HLM was measured as described in J Comput Aided Mol Des 2015, 29, 795.

Rat Hepatocytes (rHep) = assay: Metabolic stability in rat hepatocytes (rHep); assay type: in vitro ADME
Experimental: Metabolic stability in rat hepatocytes was measured as described in J Comput Aided Mol Des 2015, 29, 795.

Human Hepatocytes (hHep) = assay: Metabolic stability in human hepatocytes (hHep); assay type: in vitro ADME
Experimental: Metabolic stability in human hepatocytes was measured as described in Xenobiotica 2010, 40, 637.

Kinetic solubility = assay type: physicochemical; conditions: kinetic from dmso stock
Experimental: Kinetic solubility was measured as described in Comput Aided Mol Des 2015, 29, 795.

hFAP = hFAP (Homo sapiens (Human), UniProt Q12884);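 note: fluorescence read after incubating enzyme with substrate at room temperature, IC50 fitted from percent inhibition against log concentration with a one-site model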
Experimental: Compounds were tested in a biochemical inhibition assay using hFAP enzyme at 0.24 nM FAC (Proteros, 38-760 (PR-0071)) and the substrate Ala-Pro-AMC (ARI-3144) at 20 μM FAC. 384 low volume black plates (Greiner #784076) were used. 4 μL, 0.48 nM enzyme solution (100 mM Tris HCl, 100 mM NaCl, 0.05% Chaps, pH 7.4) was added to 40 nL compounds (in DMSO) at 10 CR, 3-fold dilution series from 50 μM FAC. Plates were incubated for 15 min at rt in dark. 4 μL, 40 μM substrate solution (100 mM Tris HCl, 100 mM NaCl, 0.05% Chaps, pH 7.4) was added to each well. Plates were centrifuged at 1000 rpm and incubated for 30 min at rt in dark. The plates were read on a PHERAstar® reader with excitation 340 nm and emission 460 nm. Data were analyzed in Genedata Screener®. IC50 values were determined by plotting % inhibition versus log compound concentration and using a one site dose response model.

hFAP (M39-A757) = hFAP (M39-A757) (Homo sapiens (Human), UniProt Q12884)
Chain of hFAP (M39-A757) (Q12884 39-757): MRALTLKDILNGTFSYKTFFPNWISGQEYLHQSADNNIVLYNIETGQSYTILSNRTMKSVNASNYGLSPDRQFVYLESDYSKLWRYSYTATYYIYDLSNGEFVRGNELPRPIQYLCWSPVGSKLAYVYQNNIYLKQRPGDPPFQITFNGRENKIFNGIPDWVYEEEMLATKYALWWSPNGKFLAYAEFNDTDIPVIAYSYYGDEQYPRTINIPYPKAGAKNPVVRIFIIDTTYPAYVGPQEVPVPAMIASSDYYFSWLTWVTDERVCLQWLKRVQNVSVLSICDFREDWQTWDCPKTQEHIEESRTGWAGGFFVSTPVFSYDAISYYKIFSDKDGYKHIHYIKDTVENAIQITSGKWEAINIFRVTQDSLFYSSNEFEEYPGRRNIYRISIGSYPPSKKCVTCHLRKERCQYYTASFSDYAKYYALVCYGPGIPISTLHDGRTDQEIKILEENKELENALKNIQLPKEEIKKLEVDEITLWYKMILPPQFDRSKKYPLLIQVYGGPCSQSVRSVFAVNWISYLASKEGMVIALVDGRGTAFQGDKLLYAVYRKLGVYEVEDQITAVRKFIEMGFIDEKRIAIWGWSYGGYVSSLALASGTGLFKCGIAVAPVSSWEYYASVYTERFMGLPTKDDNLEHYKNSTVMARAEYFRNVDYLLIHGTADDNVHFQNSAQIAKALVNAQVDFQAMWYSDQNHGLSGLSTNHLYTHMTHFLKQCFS
Experimental: Compounds were tested in a direct binding assay using 8K surface plasmon resonance biosensor (GE Healthcare) at 20° C. Immobilization of hFAP (M39-A757) on a CMD200M sensor chip (Xantec) was performed using standard amine coupling procedure in immobilization buffer (10 mM HEPES, 150 mM NaCl, 0.05% Tween20, pH 7.4). The surface was washed with 10 mM NaOH, 1M NaCl before being activated with EDC/NHS (GE Healthcare), followed by immobilization of hFAP (in 10 mM Acetate pH 5.0). Finally, the surface was deactivated by ethanolamine. Immobilization levels of hFAP were around 4000-6000 RU. The reference spot was treated as described, omitting the injection of hFAP. Compound concentration series were injected over the immobilized protein in increasing concentrations (2-500 nM) using single cycle kinetics in running buffer (20 mM TRIS, 150 mM NaCl, 0.05% Tween20, 1% DMSO, pH 7.4). Interaction models were fitted globally to the experimental traces, enabling determination of kon, koff and Kd.

Chain of Prolyl Oligopeptidase (hPREP) (P48147 whole entry): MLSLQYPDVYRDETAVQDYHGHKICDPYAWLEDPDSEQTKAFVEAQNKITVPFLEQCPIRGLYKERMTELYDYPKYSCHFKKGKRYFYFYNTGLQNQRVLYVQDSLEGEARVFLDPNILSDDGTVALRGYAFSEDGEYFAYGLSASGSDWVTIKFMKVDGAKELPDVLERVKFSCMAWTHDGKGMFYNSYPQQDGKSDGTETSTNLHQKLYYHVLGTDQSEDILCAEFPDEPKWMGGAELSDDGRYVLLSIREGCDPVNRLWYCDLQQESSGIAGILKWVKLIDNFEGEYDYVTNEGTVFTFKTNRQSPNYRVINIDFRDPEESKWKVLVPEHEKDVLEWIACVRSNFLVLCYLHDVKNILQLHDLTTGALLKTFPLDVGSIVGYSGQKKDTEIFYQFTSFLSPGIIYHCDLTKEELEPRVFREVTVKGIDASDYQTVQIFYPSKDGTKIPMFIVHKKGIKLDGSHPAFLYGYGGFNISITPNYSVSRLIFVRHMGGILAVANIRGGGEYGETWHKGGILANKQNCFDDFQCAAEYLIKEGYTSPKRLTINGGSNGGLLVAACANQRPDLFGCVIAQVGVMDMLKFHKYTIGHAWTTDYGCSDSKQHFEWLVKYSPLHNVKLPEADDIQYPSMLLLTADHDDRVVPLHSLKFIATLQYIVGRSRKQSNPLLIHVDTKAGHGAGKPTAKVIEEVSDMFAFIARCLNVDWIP
Chain of hFAP (Q12884 38-760): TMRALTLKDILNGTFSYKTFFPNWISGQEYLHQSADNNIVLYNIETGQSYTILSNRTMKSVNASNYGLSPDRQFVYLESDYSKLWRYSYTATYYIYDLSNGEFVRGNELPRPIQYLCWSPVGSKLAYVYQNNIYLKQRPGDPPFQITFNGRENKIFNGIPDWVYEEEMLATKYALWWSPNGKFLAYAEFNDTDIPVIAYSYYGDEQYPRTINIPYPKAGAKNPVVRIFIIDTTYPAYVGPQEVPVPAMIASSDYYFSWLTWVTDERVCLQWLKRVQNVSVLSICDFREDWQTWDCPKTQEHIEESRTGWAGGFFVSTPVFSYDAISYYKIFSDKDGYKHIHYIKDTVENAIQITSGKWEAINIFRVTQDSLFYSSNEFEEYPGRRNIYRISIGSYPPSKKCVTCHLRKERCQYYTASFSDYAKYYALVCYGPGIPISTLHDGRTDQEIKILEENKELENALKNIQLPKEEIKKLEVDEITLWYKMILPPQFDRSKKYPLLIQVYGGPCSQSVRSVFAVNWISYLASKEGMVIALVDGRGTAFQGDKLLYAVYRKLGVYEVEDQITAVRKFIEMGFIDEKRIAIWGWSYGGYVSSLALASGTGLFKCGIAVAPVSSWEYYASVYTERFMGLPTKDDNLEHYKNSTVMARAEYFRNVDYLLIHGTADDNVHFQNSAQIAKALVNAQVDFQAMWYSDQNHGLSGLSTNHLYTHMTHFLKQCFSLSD
Chain of human Fibroblast activation protein alpha (hFAP) (Q12884 38-760): as above

| IC50 [1] | IC50 [2] | microsomal CLint [3] | rHeps CLint (Rat Hepatocytes (rHep)) | hHep CLint (Human Hepatocytes (hHep)) | solubility (Kinetic solubility) | IC50 (hFAP) | Kd (hFAP (M39-A757)) | Compound |
| --- | --- | --- | --- | --- | --- | --- | --- | --- |
| 20 nM | 44000 nM | < 3 µL/min/mg | 1.3 μL/min/1E6 | <1 μL/min/1E6 | 890 µM (≈ 314 µg/mL) | 71 nM |  | Cc1cc(C(=O)NCC(=O)N2[C@H](C#N)C[C@@H]3C[C@@H]32)c2ccc(F)cc2n1 [Example 8, N-(2-((1S,3S,5S)-3-Cyano-2-azabicyclo[3.1.0]hexan-2-yl)-2-oxoethyl)-7-fluoro-2-methylquinoline-4-carboxamide] |
| 0.4 nM | > 50000 nM | < 3 µL/min/mg | 5.3 μL/min/1E6 |  | 970 µM (≈ 342 µg/mL) | 2.2 nM | 17 nM | N#C[C@@H]1C[C@@H]2C[C@@H]2N1C(=O)CNC(=O)c1ccnc2ccc(CF)cc12 [Example 11, N-(2-((1S,3S,5S)-3-Cyano-2-azabicyclo[3.1.0]hexan-2-yl)-2-oxoethyl)-6-(fluoromethyl)quinoline-4-carboxamide] |
| 0.75 nM | > 50000 nM | 100 µL/min/mg | 20 μL/min/1E6 |  | 300 µM (≈ 114 µg/mL) | 3.8 nM | 13 nM | CC(C)(F)c1ccc2nccc(C(=O)NCC(=O)N3[C@H](C#N)C[C@@H]4C[C@@H]43)c2c1 [Example 12, N-(2-((1S,3S,5S)-3-Cyano-2-azabicyclo[3.1.0]hexan-2-yl)-2-oxoethyl)-6-(2-fluoropropan-2-yl)quinoline-4-carboxamide] |
| 0.86 nM | > 50000 nM | < 3 µL/min/mg | 2 μL/min/1E6 | <1 μL/min/1E6 | > 1000 µM | 3.8 nM |  | CC(C)(O)c1ccc2nccc(C(=O)NCC(=O)N3[C@H](C#N)C[C@@H]4C[C@@H]43)c2c1 [Example 13, N-(2-((1S,3S,5S)-3-Cyano-2-azabicyclo[3.1.0]hexan-2-yl)-2-oxoethyl)-6-(2-hydroxypropan-2-yl)quinoline-4-carboxamide] |
| 1.1 nM | > 50000 nM | 30 µL/min/mg | 9.4 μL/min/1E6 | 3.3 μL/min/1E6 | > 1000 µM | 16 nM |  | COC(C)c1ccc2nccc(C(=O)NCC(=O)N3[C@H](C#N)C[C@@H]4C[C@@H]43)c2c1 (stereo partly drawn) [Example 15, N-(2-((1S,3S,5S)-3-Cyano-2-azabicyclo[3.1.0]hexan-2-yl)-2-oxoethyl)-6-(1-methoxyethyl)quinoline-4-carboxamide] |
| 0.81 nM | > 50000 nM | 72 µL/min/mg | 21 μL/min/1E6 |  | > 1000 µM | 4.2 nM | 20 nM | COC(C)(C)c1ccc2nccc(C(=O)NCC(=O)N3[C@H](C#N)C[C@@H]4C[C@@H]43)c2c1 [Example 16, N-(2-((1S,3S,5S)-3-Cyano-2-azabicyclo[3.1.0]hexan-2-yl)-2-oxoethyl)-6-(2-methoxypropan-2-yl)quinoline-4-carboxamide] |
| 0.38 nM | > 50000 nM | 110 µL/min/mg | 21 μL/min/1E6 |  | 340 µM (≈ 142 µg/mL) | 1.7 nM | 8.5 nM | N#C[C@@H]1C[C@@H]2C[C@@H]2N1C(=O)CNC(=O)c1ccnc2ccc(COC(F)(F)F)cc12 [Example 17, N-(2-((1S,3S,5S)-3-Cyano-2-azabicyclo[3.1.0]hexan-2-yl)-2-oxoethyl)-6-((trifluoromethoxy)methyl)quinoline-4-carboxamide] |
| 0.97 nM | > 50000 nM | 13 µL/min/mg | 70 μL/min/1E6 |  | 56 µM (≈ 21.3 µg/mL) | 2.8 nM | 10 nM | CC(C)(F)c1ccc2c(C(=O)NCC(=O)N3[C@H](C#N)C[C@@H]4C[C@@H]43)ccnc2c1 [Example 21, N-(2-((1S,3S,5S)-3-Cyano-2-azabicyclo[3.1.0]hexan-2-yl)-2-oxoethyl)-7-(2-fluoropropan-2-yl)quinoline-4-carboxamide] |
| 0.51 nM | > 50000 nM | < 5.8 µL/min/mg | 2.9 μL/min/1E6 | <1 μL/min/1E6 | > 1000 µM | 1.5 nM |  | N#C[C@@H]1C[C@@H]2C[C@@H]2N1C(=O)CNC(=O)c1ccnc2cc(C(F)F)ccc12 [Example 22, N-(2-((1S,3S,5S)-3-Cyano-2-azabicyclo[3.1.0]hexan-2-yl)-2-oxoethyl)-7-(difluoromethyl)quinoline-4-carboxamide] |
| 0.3 nM | > 45000 nM | < 3 µL/min/mg | 2.7 μL/min/1E6 |  | > 1000 µM | 1.2 nM | 8.2 nM | N#C[C@@H]1C[C@@H]2C[C@@H]2N1C(=O)CNC(=O)c1ccnc2cc(CF)ccc12 [Example 24, N-(2-((1S,3S,5S)-3-Cyano-2-azabicyclo[3.1.0]hexan-2-yl)-2-oxoethyl)-7-(fluoromethyl)quinoline-4-carboxamide] |
| 2 nM | > 50000 nM | 21 µL/min/mg | 7.2 μL/min/1E6 | 3.1 μL/min/1E6 | > 1000 µM | 6 nM |  | COC(C)c1ccc2c(C(=O)NCC(=O)N3[C@H](C#N)C[C@@H]4C[C@@H]43)ccnc2c1 (stereo partly drawn) [Example 27, N-(2-((1S,3S,5S)-3-Cyano-2-azabicyclo[3.1.0]hexan-2-yl)-2-oxoethyl)-7-(1-methoxyethyl)quinoline-4-carboxamide] |
| 1.3 nM | > 50000 nM | 36 µL/min/mg | 5.2 μL/min/1E6 |  | > 1000 µM | 4.6 nM | 7.8 nM | COC(C)(C)c1ccc2c(C(=O)NCC(=O)N3[C@H](C#N)C[C@@H]4C[C@@H]43)ccnc2c1 [Example 28, N-(2-((1S,3S,5S)-3-Cyano-2-azabicyclo[3.1.0]hexan-2-yl)-2-oxoethyl)-7-(2-methoxypropan-2-yl)quinoline-4-carboxamide] |
| 0.3 nM | > 50000 nM | 8.9 µL/min/mg | 81 μL/min/1E6 |  | 23 µM (≈ 9.62 µg/mL) | 1.3 nM | 11 nM | N#C[C@@H]1C[C@@H]2C[C@@H]2N1C(=O)CNC(=O)c1ccnc2cc(COC(F)(F)F)ccc12 [Example 29, N-(2-((1S,3S,5S)-3-Cyano-2-azabicyclo[3.1.0]hexan-2-yl)-2-oxoethyl)-7-((trifluoromethoxy)methyl)quinoline-4-carboxamide] |
| 1.2 nM | > 50000 nM | 160 µL/min/mg | 20 μL/min/1E6 | 15 μL/min/1E6 | 850 µM (≈ 322 µg/mL) | 4.1 nM |  | CC(C)Oc1ccc2nccc(C(=O)NCC(=O)N3[C@H](C#N)C[C@@H]4C[C@@H]43)c2c1 [Example 34, N-(2-((1S,3S,5S)-3-Cyano-2-azabicyclo[3.1.0]hexan-2-yl)-2-oxoethyl)-6-isopropoxyquinoline-4-carboxamide] |
| 0.097 nM | > 50000 nM | 90 µL/min/mg | 16 μL/min/1E6 | 12 μL/min/1E6 | 590 µM (≈ 230 µg/mL) | 0.64 nM |  | N#C[C@@H]1C[C@@H]2C[C@@H]2N1C(=O)CNC(=O)c1ccnc2ccc(OCC3CC3)cc12 [Example 35, N-(2-((1S,3S,5S)-3-Cyano-2-azabicyclo[3.1.0]hexan-2-yl)-2-oxoethyl)-6-(cyclopropylmethoxy)quinoline-4-carboxamide] |
| 0.58 nM | > 50000 nM | 180 µL/min/mg | 92 μL/min/1E6 |  | 210 µM (≈ 90 µg/mL) | 3.4 nM | 4.3 nM | N#C[C@@H]1C[C@@H]2C[C@@H]2N1C(=O)CNC(=O)c1ccnc2cc(C3(C(F)(F)F)CC3)ccc12 [Example 36, N-(2-((1S,3S,5S)-3-Cyano-2-azabicyclo[3.1.0]hexan-2-yl)-2-oxoethyl)-7-(1-(trifluoromethyl)cyclopropyl)quinoline-4-carboxamide] |
| 0.56 nM | > 50000 nM | 260 µL/min/mg | 67 μL/min/1E6 |  | 820 µM (≈ 307 µg/mL) | 2.9 nM | 11 nM | CC1(c2ccc3nccc(C(=O)NCC(=O)N4[C@H](C#N)C[C@@H]5C[C@@H]54)c3c2)CC1 [Example 43, N-(2-((1S,3S,5S)-3-Cyano-2-azabicyclo[3.1.0]hexan-2-yl)-2-oxoethyl)-6-(1-methylcyclopropyl)quinoline-4-carboxamide] |

Reference: patent US20230406840A1, “N-(2-(3-CYANO-2-AZABICYCLO[3.1.0]HEXAN-2-YL)-2-OXOETHYL)QUINOLINE-4-CARBOXAMIDES” (AstraZeneca AB, priority 2022, published 2023)
